Our source for the EC50 values is patent US20230021448A1, “COMPOUNDS AND COMPOSITIONS FOR TREATING CONDITIONS ASSOCIATED WITH STING ACTIVITY” (IFM Due, Inc., priority 2019, published 2023).

T1 sequence (Q86WV6 whole entry R71H/G230A/H232R/R293Q): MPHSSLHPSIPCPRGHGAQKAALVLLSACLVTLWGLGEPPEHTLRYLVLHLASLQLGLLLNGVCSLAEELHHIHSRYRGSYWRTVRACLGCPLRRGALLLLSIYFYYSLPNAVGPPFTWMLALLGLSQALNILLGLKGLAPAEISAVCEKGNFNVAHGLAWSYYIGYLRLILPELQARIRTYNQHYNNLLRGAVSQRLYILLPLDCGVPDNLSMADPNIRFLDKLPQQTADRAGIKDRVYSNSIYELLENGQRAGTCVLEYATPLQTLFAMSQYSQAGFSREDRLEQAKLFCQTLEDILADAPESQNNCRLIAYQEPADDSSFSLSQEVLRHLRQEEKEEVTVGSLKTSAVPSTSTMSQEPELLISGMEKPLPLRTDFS

This assay has as its target T1, STING (Homo sapiens, UniProt Q86WV6, G230A/H232R/R293Q/R71H).
T1 construct: host or cells: THP1-Dual KO-IFNAR2 cells
The assay is described as follows: STING reporter assay: luciferase reporter activity in THP1-Dual KO-IFNAR2 cells stimulated with 2'3'cGAMP. The assay is classed as cell-based. The settings on record: 2′3′cGAMP 15 μM final, 24h, read-out: hSTING: EC50. The procedure:
STING pathway activation by the compounds described herein was measured using THIP1-Dua1™ cells (KO-IFNAR2).
TTIP1-Dual™ KO-IFNAR2 Cells (obtained from invivogen) were maintained in RPMI, 10% FCS, 5 ml P/S, 2 mM L-glut, 10 mM Hepes, and 1 mM sodium pyruvate. Compounds were spotted in empty 384 well tissue culture plates (Greiner 781182) by Echo for a final concentration of 0.0017-100 μM. Cells were plated into the TC plates at 40 μL per well, 2×10E6 cells/mL. For activation with STING ligand, 2′3′cGAMP (MW 718.38, obtained from Invivogen), was prepared in Optimem media.
The following solutions were prepared for each 1×384 plate: • Solution A: 2 mL Optimem with one of the following stimuli: • […] • Solution B: 2 mL Optimem with 60 μL Lipofectamine 2000->Incubate 5 min at RT
2 mL of solution A and 2 ml Solution B was mixed and incubated for 20 min at room temperature (RT). 20 uL of transfection solution (A+B) was added on top of the plated cells, with a final 2′3′cGAMP concentration of 15 μM. The plates were then centrifuged immediately at 340 g for 1 minute, after which they were incubated at 37° C., 5% C02, >98% humidity for 24h. Luciferase reporter activity was then measured. EC50 values were calculated by using standard methods known in the art.
Luciferase reporter assay: 10 μL of supernatant from the assay was transferred to white 384-plate with flat bottom and squared wells. One pouch of QUANTI-Luc™ Plus was dissolved in 25 mL of water. 100 μL of QLC Stabilizer per 25 mL of QUANTI-Luc™ Plus solution was added. 50 μL of QUANTI-Luc™ Plus/QLC solution per well was then added. Luminescence was measured on a Platereader (e.g., Spectramax I3X (Molecular Devices GF3637001)).
Luciferase reporter activity was then measured. EC50 values were calculated by using standard methods known in the art.
(A reporter such as luciferase makes a cellular process visible.)
For `Cc1cc(NC(=O)C(=O)Nc2c[nH]c3cc(F)c(F)cc23)ccc1OC(F)(F)F` [Compound 289, N-(5,6-difluoro-1H-indol-3-yl)-N′-[3-methyl-4-(trifluoromethoxy)phenyl] ethanediamide], the 50% effective concentration (EC50) (in general, the concentration needed to bring the measured effect to its halfway point) was 40 to 200 nM. Next, `O=C(Nc1c[nH]c2cc(F)c(F)cc12)C(=O)NC1CCN(Cc2cccc(C(F)(F)F)c2)C1` (stereo not shown) [Compound 336]: 200 to 1000 nM; `O=C(Nc1c[nH]c2cc(F)c(F)cc12)C(=O)NC(c1ccccc1)C(F)(F)F` (single isomer, unassigned) [Compound 240, N-(5,6-difluoro-1H-indol-3-yl)-N′-(2,2,2-trifluoro-1-phenylethyl)oxalamide]: 200 to 1000 nM; `O=C(NCC(=O)N1CCc2ccccc21)C(=O)Nc1c[nH]c2cc(F)c(F)cc12` [Compound 309, N-(5,6-difluoro-1H-indol-3-yl)-N′-[2-(2,3-dihydro-1H-indol-1-yl)-2-oxoethyl] ethanediamide]: 200 to 1000 nM. Next, `O=C(Nc1ccc(C(F)(F)F)cc1)C(=O)Nc1c[nH]c2ccccc12` [Compound 116, N1-(1H-indol-3-yl)-N2-(4-(trifluoromethyl)phenyl)oxalamide]: 200 to 1000 nM; `Cc1cc(F)c(Cl)cc1NC(=O)C(=O)Nc1c[nH]c2cc(F)c(F)cc12` [Compound 154, N1-(5-chloro-4-fluoro-2-methylphenyl)-N2-(5,6-difluoro-1H-indol-3-yl)oxalamide]: 200 to 1000 nM. For `O=C(NCc1ccnc(C(F)(F)F)c1)C(=O)Nc1c[nH]c2cc(F)c(F)cc12` [Compound 342], the EC50 is 200 to 1000 nM. For `CC(C)(NC(=O)C(=O)Nc1c[nH]c2cc(F)c(F)cc12)c1ccc(C(F)(F)F)c(Cl)c1` [Compound 137], the EC50 fell in the range of 200 to 1000 nM. Next, `O=C(Nc1c[nH]c2cc(F)c(F)cc12)C(=O)NC1CCC2(CCCCC2)C1` (stereo not shown) [Compound 280]: 200 to 1000 nM. With `O=C(NCC1CCc2ccccc2O1)C(=O)Nc1c[nH]c2cc(F)c(F)cc12` (stereo not shown) [Compound 145, N-(chroman-2-ylmethyl)-N2-(5,6-difluoro-1H-indol-3-yl)oxalamide], the EC50 fell in the range of 200 to 1000 nM. Consider `CN(CCCNC(=O)C(=O)Nc1c[nH]c2cc(F)c(F)cc12)c1ccccc1` [Compound 307, N-(5,6-difluoro-1H-indol-3-yl)-N′-{3-[methyl(phenyl)amino]propyl}ethanediamide], for which the EC50 lay within 200 to 1000 nM. In the case of `O=C(NCCc1ccc(C(F)(F)F)cc1)C(=O)Nc1c[nH]c2cc(F)c(F)cc12` [Compound 144, N1-(5,6-difluoro-1H-indol-3-yl)-N2-(4-(trifluoromethyl)phenethyl) oxalamide], the EC50 is 200 to 1000 nM. Then `COc1cc(NC(=O)C(=O)Nc2c[nH]c3cc(F)c(F)cc23)ccc1N1CCCC1` [Compound 293, N-(5,6-difluoro-1H-indol-3-yl)-N′-[3-methoxy-4-(pyrrolidin-1-yl)phenyl] ethanediamide], with 200 to 1000 nM; and `Cc1ccc(O[C@H]2C[C@H](NC(=O)C(=O)Nc3c[nH]c4cc(F)c(F)cc34)C2)nc1` [Compound 199], with 40 to 200 nM. Then `Cc1cc(NC(=O)C(=O)Nc2c[nH]c3cc(F)c(F)cc23)cc(C(F)(F)F)c1` [Compound 103, N^1-(5,6-difluoro-1H-indol-3-yl)-N^2-(3-methyl-5-(trifluoromethyl)phenyl)oxalamide], with 40 to 200 nM.

For `Cc1cc2c(cn1)C(NC(=O)C(=O)Nc1c[nH]c3cc(F)c(F)cc13)CCC2` (stereo not shown) [Compound 323], the EC50 is 200 to 1000 nM.

In the case of `O=C(Nc1c[nH]c2cc(F)c(F)cc12)C(=O)N[C@H]1CC[C@H](Oc2ccc(C(F)(F)F)nc2)CC1` [Compound 223, N-(5,6-difluoro-1H-indol-3-yl)-N′-[trans-4-[[6-(trifluoromethyl)pyridin-3-yl]oxy]cyclohexyl]ethanediamide], the EC50 was 200 to 1000 nM.

In the case of `CC(C)n1cc(-c2ccc3[nH]cc(NC(=O)C(=O)Nc4ccc(C(F)(F)F)cc4)c3c2)cn1` [Compound 346], the EC50 lay within 200 to 1000 nM. Next, `CN(C(=O)CNC(=O)C(=O)Nc1c[nH]c2cc(F)c(F)cc12)c1ccccc1` [Compound 306, N-(5,6-difluoro-1H-indol-3-yl)-N′-{[methyl(phenyl)carbamoyl]methyl} ethanediamide]: 1000 to 5000 nM. Then `O=C(Nc1c[nH]c2cc(F)c(F)cc12)C(=O)NC1CCC2(CCCC2)C1` (single isomer, unassigned) [Compound 245], with 200 to 1000 nM. Then `O=C(NCc1cc(C(F)(F)F)ccn1)C(=O)Nc1c[nH]c2cc(F)c(F)cc12` [Compound 126], with 40 to 200 nM.

In the case of `O=C(Nc1c[nH]c2cc(F)c(F)cc12)C(=O)N1CCC(Cc2ccc(C(F)(F)F)cc2)CC1` [Compound 251], the EC50 lay within 1000 to 5000 nM. Take `O=C(Nc1c[nH]c2cc(F)c(F)cc12)C(=O)NC(c1ccccc1)C(F)(F)F` (single isomer, unassigned) [Compound 239, N-(5,6-difluoro-1H-indol-3-yl)-N′-(2,2,2-trifluoro-1-phenylethyl)oxalamide]: the EC50 lay within 200 to 1000 nM. Next, `Cc1ccc(CNC(=O)C(=O)Nc2c[nH]c3ccc(-c4cnn(CC(F)(F)F)c4)cc23)cc1OC(F)(F)F` [Compound 285]: 40 to 200 nM; `O=C(NCc1ccc(Cl)c(C(F)(F)F)n1)C(=O)Nc1c[nH]c2cc(F)c(F)cc12` [Compound 334]: 200 to 1000 nM; `O=C(Nc1c[nH]c2cc(F)c(F)cc12)C(=O)NC1CCC(Oc2ccccn2)CC1` (stereo not shown) [Compound 316]: 200 to 1000 nM. Then `Cc1ccccc1N1C2CCC1CC(NC(=O)C(=O)Nc1c[nH]c3cc(F)c(F)cc13)C2` (stereo not shown) [Compound 254], with 200 to 1000 nM; and `C[C@@H](NC(=O)C(=O)Nc1c[nH]c2cc(F)c(F)cc12)c1cccc(C(F)(F)F)c1` [Compound 291, N-(5,6-difluoro-1H-indol-3-yl)-N′-[(1R)-1-[3-(trifluoromethyl)phenyl]ethyl] ethanediamide], with 200 to 1000 nM. Then `O=C(NCc1cccc(N2CCCCC2)n1)C(=O)Nc1c[nH]c2cc(F)c(F)cc12` [Compound 326], with 200 to 1000 nM; and `COc1ccc(CCNC(=O)C(=O)Nc2c[nH]c3cc(F)c(F)cc23)cn1` [Compound 299, N-(5,6-difluoro-1H-indol-3-yl)-N′-[2-(6-methoxypyridin-3-yl)ethyl]ethanediamide], with 1000 to 5000 nM. `O=C(NCCc1ccc(C(F)(F)F)cn1)C(=O)Nc1c[nH]c2cc(F)c(F)cc12` [Compound 269, N-(5,6-difluoro-1H-indol-3-yl)-N′-{2-[5-(trifluoromethyl)pyridin-2-yl]ethyl}ethanediamide]: the EC50 lay in the range of 200 to 1000 nM.

As for `N#Cc1cc(NC(=O)C(=O)Nc2c[nH]c3cc(F)c(F)cc23)ccc1N1CCCC1` [Compound 286, N′-[3-cyano-4-(pyrrolidin-1-yl)phenyl]-N-(5,6-difluoro-1H-indol-3-yl)ethanediamide], the EC50 was 200 to 1000 nM. As to `O=C(NCC1CCC(F)(F)CC1)C(=O)Nc1c[nH]c2cc(F)c(F)cc12` [Compound 151, N1-(5,6-difluoro-1H-indol-3-yl)-N2-((4,4-difluorocyclohexyl)methyl) oxalamide], the EC50 lay within 200 to 1000 nM. Next, `O=C(Nc1c[nH]c2cc(F)c(F)cc12)C(=O)NC1CC(Oc2ccc(C(F)(F)F)cn2)C1` (stereo not shown) [Compound 226]: 40 to 200 nM. Next, `CN(CCNC(=O)C(=O)Nc1c[nH]c2cc(F)c(F)cc12)c1ccccc1` [Compound 331]: 200 to 1000 nM; `O=C(NC[C@@H](C(F)F)C1CCCCC1)C(=O)Nc1c[nH]c2cc(F)c(F)cc12` [Compound 135]: 200 to 1000 nM.

Consider `O=C(NCCC1CCCCC1)C(=O)Nc1c[nH]c2cc(F)c(F)cc12` [Compound 118], for which the EC50 fell in the range of 40 to 200 nM. As for `O=C(Nc1c[nH]c2cc(F)c(F)cc12)C(=O)NC1CCCC2(CCCCC2)C1` (single isomer, unassigned) [Compound 258], the EC50 was in the range of 200 to 1000 nM. Regarding `O=C(NCc1ccc(C(F)(F)F)nc1)C(=O)Nc1c[nH]c2cc(F)c(F)cc12` [Compound 344], the EC50 lay within 200 to 1000 nM.

On to `O=C(Nc1c[nH]c2cc(F)c(F)cc12)C(=O)NC1CCOC2(CCCC2)C1` (stereo not shown) [Compound 278], for which the EC50 was 1000 to 5000 nM. On to `O=C(Nc1c[nH]c2cc(F)c(F)cc12)C(=O)N[C@H]1CC[C@H](Nc2ccccn2)CC1` [Compound 202, N-(5,6-difluoro-1H-indol-3-yl)-N′-[trans-4-(pyridin-2-ylamino)cyclohexyl]ethanediamide], for which the EC50 is 5000 to 100000 nM. Then `CCC(NC(=O)C(=O)Nc1c[nH]c2cc(F)c(F)cc12)c1cccc(C(F)(F)F)c1` (single isomer, unassigned) [Compound 236], with 200 to 1000 nM. Next, `CC(C)(NC(=O)C(=O)Nc1c[nH]c2cc(F)c(F)cc12)c1ccc(C(F)(F)F)cc1` [Compound 125]: 200 to 1000 nM.
